Where two headings read alike, the source gives them in different places.

What is called IC50 is the concentration that inhibits the measured activity by half.

Assay [1] deals with PC-9 cells (EGFR Ex19Del). Description: Potency Assay: pERK (SOS1 pERK IC50 Assay, AlphaLISA SureFire Ultra p-ERK1/2). Type of assay: cell-based. Conditions: Homo sapiens, read-out: SOS1 pERK IC50. The protocol:
The purpose of this assay is to measure the ability of test compounds to inhibit SOS1 function in cells. SOS1 activates RAS proteins by catalyzing the conversion of RAS GDP to RAS GTP in response to receptor tyrosine kinase activation. […] The procedure described below measures the level of cellular pERK in response to test compounds in PC-9 cells (EGFR Ex19Del).
PC-9 cells were grown and maintained using media and procedures recommended by the ATCC. On the day prior to compound addition, cells were plated in 384-well cell culture plates (40 μL/well) and grown overnight in a 37° C., 5% CO2 incubator. Test compounds were prepared in 10, 3-fold dilutions in DMSO, with a top concentration of 10 mM. On the day of the assay, 40 nL of test compound was added to each well of cell culture plate using an Echo550 liquid handler (LabCyte). Concentrations of test compound were tested in duplicate with highest test concentration being 10 μM. After compound addition, cells were incubated for 1 hour at 37° C., 5% CO2. Following incubation, culture medium was removed and cells were washed once with phosphate buffered saline.
Cellular pERK level was determined using the AlphaLISA SureFire Ultra p-ERK1/2 Assay Kit (PerkinElmer). Cells were lysed in 25 μL lysis buffer, with shaking at 600 RPM at room temperature for 15 minutes. Lysate (10 μL) was transferred to a 384-well Opti-plate (PerkinElmer) and 5 μL acceptor mix was added. The plate was centrifuged at 1000 RPM for 1 minute, and incubated in the dark for 2 hours. Following this incubation, 5 μL of donor mix was added, the plate was sealed and centrifuged at 1000 RPM for 1 minute, and the mixture was incubated for 2 hours at room temperature. Signal was read on an Envision plate reader (PerkinElmer) using standard AlphaLISA settings. Analysis of raw data was carried out in Excel (Microsoft) and Prism (GraphPad). Signal was plotted vs. the decadal logarithm of compound concentration, and IC50 was determined by fitting a 4-parameter sigmoidal concentration response model.

Assay [2] has as its target T1, SOS1 catalytic domain (residues 564-1049) (Homo sapiens, UniProt Q07889).
T1 sequence (Q07889 564-1049): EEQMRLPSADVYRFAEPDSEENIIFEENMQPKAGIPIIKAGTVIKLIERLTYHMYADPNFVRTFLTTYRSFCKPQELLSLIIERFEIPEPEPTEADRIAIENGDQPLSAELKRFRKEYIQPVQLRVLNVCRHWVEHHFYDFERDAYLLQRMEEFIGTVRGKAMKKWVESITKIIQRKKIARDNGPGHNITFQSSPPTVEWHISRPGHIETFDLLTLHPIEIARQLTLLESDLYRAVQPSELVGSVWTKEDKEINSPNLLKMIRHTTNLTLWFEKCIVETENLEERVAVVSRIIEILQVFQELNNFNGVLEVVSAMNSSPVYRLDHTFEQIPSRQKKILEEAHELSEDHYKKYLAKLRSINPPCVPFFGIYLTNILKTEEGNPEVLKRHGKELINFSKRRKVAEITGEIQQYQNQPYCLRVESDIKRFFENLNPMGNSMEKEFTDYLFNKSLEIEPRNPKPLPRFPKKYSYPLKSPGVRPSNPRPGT
Description: Mode of Action Assay: inhibition of SOS1 nucleotide exchange activity (SOS1 TR-FRET IC50 Assay). In general terms: Time-resolved FRET reads energy transfer from a long-lived donor to a nearby acceptor.

Where [3] appears, read: PC-9 cells (EGFR Ex19Del), 1 hour incubation, AlphaLISA p-ERK1/2.

As to `C[C@@H](Nc1nc(Cl)nc2c1CN(C(=O)N1CCOCC1)C2)c1cccc(C(F)CO)c1` (stereo partly drawn) [Example 519, [2-chloro-4-[[(1R)-1-[3-(1-fluoro-2-hydroxy-ethyl)phenyl]ethyl]amino]-5,7-dihydropyrrolo[3,4-d]pyrimidin-6-yl]-morpholino-methanone], the figures for the IC50 in assay [1] (setting [3]) and in assay [2] were more than 1 µM and less than 1 µM, respectively.
For `COCC(F)(F)c1cccc([C@@H](C)Nc2nc(Cl)nc3c2CN(C(=O)C2(OC)CCOCC2)C3)c1` [Example 536, [2-chloro-4-[[(1R)-1-[3-(1,1-difluoro-2-methoxy-ethyl)phenyl]ethyl]amino]-5,7-dihydropyrrolo[3,4-d]pyrimidin-6-yl]-(4-methoxytetrahydropyran-4-yl)methanone] the same measures were less than 1 µM and less than 1 µM.
For `C[C@@H](Nc1nc(Cl)nc2c1CN(C(=O)C1(CO)CC1)CC2)c1cc(N)cc(C(F)(F)F)c1` [Example 206] the same measures were more than 1 µM and more than 1 µM.
For `COc1cccc(C(=O)N2CCc3nc(Cl)nc(N[C@H](C)c4cc(N)cc(C(F)(F)F)c4)c3C2)n1` [Example 242] the same measures were more than 1 µM and less than 1 µM.
Consider `C[C@@H](Nc1nc(Cl)nc2c1CN(C(=O)C1CNC1)C2)c1cc(N)cc(C(F)(F)F)c1` [Example 268], for which the 50% inhibitory concentration (IC50) in assay [1] (setting [3]) was more than 1 µM; in assay [2] it was less than 1 µM.
With `COc1ccc(C(=O)N2CCc3nc(Cl)nc(N[C@H](C)c4cc(N)cc(C(F)(F)F)c4)c3C2)nc1` [Example 245], the 50% inhibitory concentration (IC50) in assay [1] (setting [3]) and in assay [2] was more than 1 µM in each case.
As to `C[C@@H](Nc1nc(Cl)nc2c1C[C@H](N1CCOCC1)CC2)c1cccc(C(F)F)c1F` [Example 441], the IC50 is more than 1 µM in assay [1] (setting [3]) and less than 1 µM in assay [2].
`C[C@@H](Nc1nc(Cl)nc2c1CN(C(=O)C13CC(C)(C1)OC31COC1)CC2)c1cc(N)cc(C(F)(F)F)c1` [Example 210]: the concentration for half-maximal inhibition (IC50) in assay [1] (setting [3]) and in assay [2] was more than 1 µM in each case.
Take `COC1(C(=O)N2CCc3nc(Cl)nc(N[C@H](C)c4cc(N)cc(C(F)(F)F)c4)c3C2)CCCOC1` (stereo partly drawn) [Example 224]: the concentration for half-maximal inhibition (IC50) in assay [1] (setting [3]) and in assay [2] was more than 1 µM in each case.
Take `C[C@@H](Nc1nc(Cl)nc2c1CN(C(=O)c1ccc3c(n1)OCCO3)CC2)c1cc(N)cc(C(F)(F)F)c1` [Example 249]: the IC50 in assay [1] (setting [3]) and in assay [2] was more than 1 µM throughout.
`CC(Nc1nc(Cl)nc2c1CN(C(=O)N1CCOCC1)C2)c1cccc(C2CC2)c1` (stereo not drawn) [Example 534, [2-chloro-4-[1-(3-cyclopropylphenyl)ethylamino]-5,7-dihydropyrrolo[3,4-d]pyrimidin-6-yl]-morpholino-methanone]: the IC50 in assay [1] (PC-9, 1 h) was more than 1 µM; in assay [2], more than 1 µM.
Take `C[C@@H](Nc1nc(Cl)nc2c1CN(C(=O)[C@@H]1COC[C@@H]1N)C2)c1cccc(C(F)F)c1F` [Example 308]: the IC50 was more than 1 µM in assay [1] (setting [3]) and less than 1 µM in assay [2].
In the same order, the values of `COC1(C(=O)N2CCc3nc(Cl)nc(N[C@H](C)c4cc(N)cc(C(F)(F)F)c4)c3C2)CC1` [Example 201] are more than 1 µM and more than 1 µM.
For `C[C@@H](Nc1nc(Cl)nc2c1CN(C(=O)C13CC(C1)C3)CC2)c1cc(N)cc(C(F)(F)F)c1` [Example 211] the same measures were more than 1 µM and more than 1 µM.
For `COC(F)(F)c1cccc([C@@H](C)Nc2nc(Cl)nc3c2CN(C(=O)N2CCOCC2)C3)c1` [Example 475, 2-chloro-N-[(1R)-1-{3-[difluoro(methoxy)methyl]phenyl}ethyl]-6-(morpholine-4-carbonyl)-5H,6H,7H-pyrrolo[3,4-d]pyrimidin-4-amine] the same measures were more than 1 µM and more than 1 µM.
Consider `C[C@@H](Nc1ncnc2c1CN(CC1CCOC1)C2)c1cc(N)cc(C(F)(F)F)c1` (stereo partly drawn) [Example 54, N-[(1R)-1-[3-amino-5-(trifluoromethyl)phenyl]ethyl]-6-(tetrahydrofuran-3-ylmethyl)-5,7-dihydropyrrolo[3,4-d]pyrimidin-4-amine], for which the IC50 in assay [1] (setting [3]) and in assay [2] was more than 1 µM throughout.
Regarding `C[C@@H](Nc1nc(Cl)nc2c1CN([C@H]1CC[C@H](C(=O)N(C)C)CC1)C2)c1cc(N)cc(C(F)(F)F)c1` [Example 57, 4-[4-[[(1R)-1-[3-amino-5-(trifluoromethyl)phenyl]ethyl]amino]-2-chloro-5,7-dihydropyrrolo[3,4-d]pyrimidin-6-yl]-N,N-dimethyl-cyclohexanecarboxamide], the IC50 in assay [1] (setting [3]) and in assay [2] was more than 1 µM each time.
In the case of `COC1CCC(C(=O)N2CCc3nc(Cl)nc(N[C@H](C)c4cc(N)cc(C(F)(F)F)c4)c3C2)C1` (stereo partly drawn) [Example 199], the IC50 in assay [1] (setting [3]) and in assay [2] was more than 1 µM in each case.
`C[C@@H](Nc1nc(Cl)nc2c1CN(C(=O)N1CCOCC1)C2)c1cccc(NC2CC2)c1` [Example 520, 2-chloro-N-[(1R)-1-[3-(cyclopropylamino)phenyl]ethyl]-6-(morpholine-4-carbonyl)-5H,6H,7H-pyrrolo[3,4-d]pyrimidin-4-amine]: the concentration for half-maximal inhibition (IC50) in assay [1] (PC-9, 1 h) is more than 1 µM; in assay [2], more than 1 µM.
Turning to `CC(Nc1nc(Cl)nc2c1CN(C(=O)N1CCOCC1)C2)c1cc(C(F)(F)F)ccn1` (stereo not drawn) [Example 472, 2-chloro-6-(morpholine-4-carbonyl)-N-{1-[4-(trifluoromethyl)pyridin-2-yl]ethyl}-5H,6H,7H-pyrrolo[3,4-d]pyrimidin-4-amine], the IC50 in assay [1] (setting [3]) and in assay [2] was more than 1 µM throughout.
For `CC(Nc1nc(Cl)nc2c1CN(C(=O)N1CCOCC1)C2)c1cccc(CCO)c1` (stereo not drawn) [Example 501, 2-[3-(1-{[2-chloro-6-(morpholine-4-carbonyl)-5H,6H,7H-pyrrolo[3,4-d]pyrimidin-4-yl]amino}ethyl)phenyl]ethan-1-ol], the values for the IC50 in assay [1] (setting [3]) and in assay [2] were more than 1 µM and less than 1 µM, respectively.
As to `CC(Nc1nc(Cl)nc2c1CN(C(=O)N1CCOCC1)C2)c1cccc2c1C[C@H](CO)C2` (stereo in doubt) [Example 464, (2-chloro-4-(((R)-1-((R)-2-(hydroxymethyl)-2,3-dihydro-1H-inden-4-yl)ethyl)amino)-5,7-dihydro-6H-pyrrolo[3,4-d]pyrimidin-6-yl)(morpholino)methanone], the IC50 in assay [1] (setting [3]) was more than 1 µM; in assay [2], less than 1 µM.
For `C[C@@H](Nc1nc(Cl)nc2c1CN(C(=O)c1cc(N3CCOCC3)nc(N3CCOCC3)n1)CC2)c1cc(N)cc(C(F)(F)F)c1` [Example 230] the same measures were more than 1 µM and more than 1 µM.
In the same order, the values of `C[C@@H](Nc1nc(Cl)nc2c1CN(C(=O)N1CCOCC1)C2)c1cccc(N2CC(O)C2)c1` [Example 518, [2-chloro-4-[[(1R)-1-[3-(3-hydroxyazetidin-1-yl)phenyl]ethyl]amino]-5,7-dihydropyrrolo[3,4-d]pyrimidin-6-yl]-morpholino-methanone] are more than 1 µM and less than 1 µM.
In the same order, the values of `C[C@@H](Nc1nc(Cl)nc2c1CN(C(=O)[C@@]13CCC[C@@H]1OCC3)CC2)c1cc(N)cc(C(F)(F)F)c1` [Example 216] are more than 1 µM and more than 1 µM.
For `C[C@@H](Nc1nc(Cl)nc2c1CN(C(=O)N1CCc3ncccc31)C2)c1cccc(C(F)(F)F)c1` [Example 371], the 50% inhibitory concentration (IC50) in assay [1] (setting [3]) and in assay [2] was less than 1 µM each time.
Consider `CC(Nc1nc(Cl)nc2c1CN(C(=O)N1CCOCC1)C2)c1cccc(C2(F)CNC2)c1` (stereo not drawn) [Example 517, [2-chloro-4-[1-[3-(3-fluoroazetidin-3-yl)phenyl]ethylamino]-5,7-dihydropyrrolo[3,4-d]pyrimidin-6-yl]-morpholino-methanone], for which the concentration for half-maximal inhibition (IC50) in assay [1] (PC-9, 1 h) was more than 1 µM; in assay [2], less than 1 µM.

(Values after patent US20230096028A1, “BICYCLIC HETEROCYCLYL COMPOUNDS AND USES THEREOF” (Revolution Medicines, Inc., priority 2019, published 2023).)
